According to patent US20170050957A1, “4-AMINO-6-(HETEROCYCLIC)PICOLINATES AND 6-AMINO-2-(HETEROCYCLIC)PYRIMIDINE-4-CARBOXYLATES AND THEIR USE AS HERBICIDES” (Dow AgroSciences LLC, priority 2013, published 2017):
Where two headings read alike, the source gives them in different places.

Assays:
[1] = tested on: Key Grass and Sedge Weeds as well as Grass Crops; assay: Post-emergent Test II herbicidal activity (Table 16); assay type: in vivo; conditions: post-emergence, 336 h, 14 d; for pest or weed control at 35 g/ha: 35 g ai/ha; for pest or weed control at 70 g/ha: 70 g ai/ha; for pest or weed control at 140 g/ha: 140 g ai/ha
How it was run: (§1)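 Plants at first-second true leaf stage, grown 7-21 d in greenhouse (~15 h photoperiod, 23-29 °C day), were track-sprayed at 187 L/ha with compound in acetone/DMSO/water/isopropanol/crop oil/Triton X-155 at a high rate plus 1/2× to 1/16× dilutions. Injury scored visually after 14 d versus untreated plants, 0 (none) to 100% (complete kill).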

[2] = tested on: Key Broadleaf Weed and Crop Species; assay: Post-emergent Test II herbicidal activity (Table 15); assay type: in vivo; conditions: post-emergence, 336 h, 14 d; for pest or weed control at 35 g/ha: 35 g ai/ha; for pest or weed control at 70 g/ha: 70 g ai/ha; for pest or weed control at 140 g/ha: 140 g ai/ha
How it was run: as §1

[3] = Cyperus esculentus, yellow nutsedge (Cyperus esculentus), read-out: Visual Growth Reduction (%) 14 Days After Application, CYPES
[4] = Echinochloa crus-galli, barnyardgrass (Echinochloa crus-galli), read-out: Visual Growth Reduction (%) 14 Days After Application, ECHCG
[5] = Oryza sativa, rice (Oryza sativa), read-out: Visual Growth Reduction (%) 14 Days After Application, ORYSA
[6] = Setaria faberi, giant foxtail (Setaria faberi), read-out: Visual Growth Reduction (%) 14 Days After Application, SETFA
[7] = Triticum aestivum, wheat, spring (Triticum aestivum), read-out: Visual Growth Reduction (%) 14 Days After Application, TRZAS
[8] = Zea mays, maize, corn (Zea mays), read-out: Visual Growth Reduction (%) 14 Days After Application, ZEAMX
[9] = Abutilon theophrasti, velvetleaf (Abutilon theophrasti), read-out: Visual Growth Reduction (%) 14 Days After Application, ABUTH
[10] = Amaranthus retroflexus, redroot pigweed (Amaranthus retroflexus), read-out: Visual Growth Reduction (%) 14 Days After Application, AMARE
[11] = Brassica napus, oilseed rape, canola (Brassica napus), read-out: Visual Growth Reduction (%) 14 Days After Application, BRSNN
[12] = Chenopodium album, lambsquarters (Chenopodium album), read-out: Visual Growth Reduction (%) 14 Days After Application, CHEAL
[13] = Euphorbia heterophylla, wild poinsettia (Euphorbia heterophylla), read-out: Visual Growth Reduction (%) 14 Days After Application, EPHHL
[14] = Helianthus annuus, sunflower (Helianthus annuus), read-out: Visual Growth Reduction (%) 14 Days After Application, HELAN

| Compound | pest or weed control at 35 g/ha [1, 3] | pest or weed control at 70 g/ha [1, 3] | pest or weed control at 140 g/ha [1, 3] | pest or weed control at 35 g/ha [1, 4] | pest or weed control at 70 g/ha [1, 4] | pest or weed control at 140 g/ha [1, 4] | pest or weed control at 35 g/ha [1, 5] | pest or weed control at 70 g/ha [1, 5] | pest or weed control at 140 g/ha [1, 5] | pest or weed control at 35 g/ha [1, 6] | pest or weed control at 70 g/ha [1, 6] | pest or weed control at 140 g/ha [1, 6] | pest or weed control at 35 g/ha [1, 7] | pest or weed control at 70 g/ha [1, 7] | pest or weed control at 140 g/ha [1, 7] | pest or weed control at 35 g/ha [1, 8] | pest or weed control at 70 g/ha [1, 8] | pest or weed control at 140 g/ha [1, 8] | pest or weed control at 35 g/ha [2, 9] | pest or weed control at 70 g/ha [2, 9] | also measured |
| --- | --- | --- | --- | --- | --- | --- | --- | --- | --- | --- | --- | --- | --- | --- | --- | --- | --- | --- | --- | --- | --- |
| COC(=O)c1nc(-c2ccc3cc[nH]c3c2F)c(Cl)c(N)c1Cl [Compound 1.07] | 0 to 29% | 0 to 29% | 0 to 29% | 0 to 29% | 0 to 29% | 0 to 29% | 0 to 29% | 0 to 29% | 0 to 29% | 60 to 74% | 75 to 84% | 75 to 84% | 0 to 29% | 0 to 29% | 0 to 29% | 0 to 29% | 0 to 29% | 0 to 29% | 0 to 29% | 0 to 29% | pest or weed control at 140 g/ha [2, 9]: 0 to 29%; pest or weed control at 35 g/ha [2, 10]: 85 to 94%; pest or weed control at 70 g/ha [2, 10]: 95 to 100%; pest or weed control at 140 g/ha [2, 10]: 95 to 100%; pest or weed control at 35 g/ha [2, 11]: 0 to 29%; pest or weed control at 70 g/ha [2, 11]: 0 to 29%; pest or weed control at 140 g/ha [2, 11]: 0 to 29%; pest or weed control at 35 g/ha [2, 12]: 85 to 94%; pest or weed control at 70 g/ha [2, 12]: 85 to 94%; pest or weed control at 140 g/ha [2, 12]: 85 to 94%; pest or weed control at 35 g/ha [2, 13]: 60 to 74%; pest or weed control at 70 g/ha [2, 13]: 60 to 74%; pest or weed control at 140 g/ha [2, 13]: 60 to 74%; pest or weed control at 35 g/ha [2, 14]: 95 to 100%; pest or weed control at 70 g/ha [2, 14]: 95 to 100%; pest or weed control at 140 g/ha [2, 14]: 95 to 100% |
| COC(=O)c1nc(-c2cc3[nH]ccc3cc2F)c(F)c(N)c1Cl [Compound 1.13] | 0 to 29% | 0 to 29% | 0 to 29% | 0 to 29% | 0 to 29% | 0 to 29% | 0 to 29% | 0 to 29% | 0 to 29% | 0 to 29% | 0 to 29% | 0 to 29% | 0 to 29% | 0 to 29% | 0 to 29% | 0 to 29% | 0 to 29% | 0 to 29% | 0 to 29% | 0 to 29% | pest or weed control at 140 g/ha [2, 9]: 0 to 29%; pest or weed control at 35 g/ha [2, 10]: 0 to 29%; pest or weed control at 70 g/ha [2, 10]: 30 to 44%; pest or weed control at 140 g/ha [2, 10]: 30 to 44%; pest or weed control at 35 g/ha [2, 11]: 0 to 29%; pest or weed control at 70 g/ha [2, 11]: 0 to 29%; pest or weed control at 140 g/ha [2, 11]: 30 to 44%; pest or weed control at 35 g/ha [2, 12]: 60 to 74%; pest or weed control at 70 g/ha [2, 12]: 75 to 84%; pest or weed control at 140 g/ha [2, 12]: 85 to 94%; pest or weed control at 35 g/ha [2, 13]: 0 to 29%; pest or weed control at 70 g/ha [2, 13]: 0 to 29%; pest or weed control at 140 g/ha [2, 13]: 30 to 44%; pest or weed control at 35 g/ha [2, 14]: 45 to 59%; pest or weed control at 70 g/ha [2, 14]: 60 to 74%; pest or weed control at 140 g/ha [2, 14]: 60 to 74% |
| Nc1c(F)c(-c2cc3[nH]ccc3cc2F)nc(C(=O)O)c1Cl [Compound 1.14] | 0 to 29% | 0 to 29% | 0 to 29% | 0 to 29% | 0 to 29% | 0 to 29% | 0 to 29% | 0 to 29% | 0 to 29% | 0 to 29% | 0 to 29% | 0 to 29% | 0 to 29% | 0 to 29% | 0 to 29% | 0 to 29% | 0 to 29% | 0 to 29% | 0 to 29% | 0 to 29% | pest or weed control at 140 g/ha [2, 9]: 0 to 29%; pest or weed control at 35 g/ha [2, 10]: 75 to 84%; pest or weed control at 70 g/ha [2, 10]: 85 to 94%; pest or weed control at 140 g/ha [2, 10]: 85 to 94%; pest or weed control at 35 g/ha [2, 11]: 45 to 59%; pest or weed control at 70 g/ha [2, 11]: 60 to 74%; pest or weed control at 140 g/ha [2, 11]: 75 to 84%; pest or weed control at 35 g/ha [2, 12]: 60 to 74%; pest or weed control at 70 g/ha [2, 12]: 60 to 74%; pest or weed control at 140 g/ha [2, 12]: 75 to 84%; pest or weed control at 35 g/ha [2, 13]: 0 to 29%; pest or weed control at 70 g/ha [2, 13]: 0 to 29%; pest or weed control at 140 g/ha [2, 13]: 60 to 74%; pest or weed control at 35 g/ha [2, 14]: 60 to 74%; pest or weed control at 70 g/ha [2, 14]: 75 to 84%; pest or weed control at 140 g/ha [2, 14]: 75 to 84% |
